In assay [1] the test system is Green Peach Aphid (Myzus persicae) (MYZUPE). Kind of assay: Bioassay on green peach aphid (GPA), foliar spray on infested cabbage seedlings. The format is in vivo. Particulars: 72 h, read-out: MYZUPE rating (% Control of Mortality). On the procedure:
Example A Bioassays on Green Peach Aphid (“GPA”) (Myzus persicae) (MYZUPE.
Several molecules disclosed herein were tested against GPA using procedures described below.
Cabbage seedling grown in 3-in pots, with 2-3 small (3-5 cm) true leaves, were used as test substrate. The seedlings were infested with […] (wingless adult and nymph stages) one day prior to chemical application. Four posts with individual seedlings were used for each treatment. Test compounds (2 mg) were dissolved in 2 mL of acetone/methanol (1:1) solvent, forming stock solutions of 1000 ppm test compound. The stock solutions were diluted 5× with 0.025% Tween 20 in water to obtain the solution at 200 ppm test compound. A hand-held aspirator-type sprayer was used for spraying a solution to both sides of the cabbage leaves until runoff. Reference plants (solvent check) were sprayed with the diluent only containing 20% by volume acetone/methanol (1:1) solvent. Treated plants were held in a holding room for three days at approximately 25° C. and ambient relative humidity (RH) prior to grading. Evaluation was conducted by counting the number of live aphids per plant under a microscope. Percent Control was measured by using Abbott's correction formula (W. S. Abbott, “A Method of Computing the Effectiveness of an Insecticide” J. Econ. Entomol 18 (1925), pp. 265-267) as follows. Corrected % Control=100*(X−Y)/X • where • X=No. of live aphids on solvent check plants and • Y=No. of live aphids on treated plants
The results are indicated in the table entitled “Table 1: GPA (MYZUPE) and sweetpotato whitefly-crawler (BEMITA) Rating Table”.

Assay [2] concerns Sweetpotato Whitefly Crawler (Bemisia tabaci) (BEMITA). Kind of assay: Bioassay on sweetpotato whitefly crawler, foliar spray on infested cotton plants. The format is in vivo. The note with it: read-out: BEMITA rating (% Control of Mortality). An excerpt: Example B Bioassays on Sweetpotato Whitefly Crawler (Bemisia tabaci) (BEMITA.)
Cotton plants grown in 3-inch pots, with 1 small (3-5 cm) true leaf, were used at test substrate. The plants were placed in a room with whitely adults. Adults were allowed to deposit eggs for 2-3 days. After a 2-3 day egg-laying period, plants were taken from the adult whitefly room. Adults were blown off leaves using a hand-held Devilbliss sprayer (23 psi). Plants with egg infestation (100-300 eggs per plant) were placed in a holding room for 5-6 days at 82° F. and 50% RH for egg hatch and crawler stage to develop. Four cotton plants were used for each treatment. Compounds (2 mg) were dissolved in 1 mL of acetone solvent, forming stock solutions of 2000 ppm. The stock solutions were diluted 10× with 0.025% Tween 20 in water to obtain a test solution at 200 ppm. A hand-held Devilbliss sprayer was used for spraying a solution to both sides of cotton leaf until runoff. Reference plants (solvent check) were sprayed with the diluent only. Treated plants were held in a holding room for 8-9 days at approximately 82° F. and 50% RH prior to grading. Evaluation was conducted by counting the number of live nymphs per plant under a microscope.

[3] abbreviates: 200 ppm spray on cabbage leaves, live aphids counted after three days, Abbott's correction.
The mark [4] stands for this setting: 200 ppm spray on cotton leaves, live nymphs counted after 8-9 days, Abbott's correction.

Counter-ions that a name gives are not always drawn. Like-named read-outs stand apart in the source and are kept apart here. A value given as a limit tells only on which side of the number the result lay.

As for `Nc1c[nH]nc1Cl` [Compound 1a, 3-chloro-1H-pyrazol-4-amine hydrochloride], the mortality at 200 ppm in assay [1] and in assay [2] was 0 to 80% in each case.
`O=C(CCSCCC(F)(F)F)Nc1c[nH]nc1Cl` [Compound 3.4]: the mortality at 200 ppm in assay [1] (setting [3]) and in assay [2] (setting [4]) was 0 to 80% throughout.
In the case of `O=C(CCCl)Nc1c[nH]nc1Cl` [Compound 4a, 3-chloro-N-(-3-chloro-1H-pyrazol-4-yl) propanamide], the mortality at 200 ppm in assay [1] (setting [3]) was under 0%; in assay [2] (setting [4]), 0 to 80%.

Source of the values: patent publication US9199942B2, “Processes for the preparation of pesticidal compounds” (Dow AgroSciences LLC, priority 2013, dated 2015).
